Entries after “also recorded” stand apart in the source; their conditions may differ. Marks after values point to notes of the source that are not given here. Values belong to the compound of their own block, whether it stands above or below them.
Key:
human NR1/NR2B = human NR1/NR2B (Homo sapiens, UniProt Q05586+Q13224); assay: Two electrode voltage clamp concentration-effect curve, human NR1/NR2B; type: cell-based
α1-adrenergic receptor = assay: [3H]prazosin displacement from brain membranes; type: binding, Wistar rat; conditions: for α1-Adrenergic (% displacement at 3 μM): 3 μM test compound, 0.25 nM [3H]prazosin, duplicate; for α1-adrenergic binding: displacement of ligand at 3 μM
MDR1 = assay: MDR1-MDCK permeability; type: in vitro ADME; conditions: dog, MDCK-MDR1, pH 7.4
[1] = target: human ether-a-go-go potassium channel (hERG) (Homo sapiens, UniProt Q12809); assay: [3H]astemizole displacement, hERG expressed in HEK293 cells; type: binding
Sequence of human ether-a-go-go potassium channel (hERG) (Q12809 whole entry): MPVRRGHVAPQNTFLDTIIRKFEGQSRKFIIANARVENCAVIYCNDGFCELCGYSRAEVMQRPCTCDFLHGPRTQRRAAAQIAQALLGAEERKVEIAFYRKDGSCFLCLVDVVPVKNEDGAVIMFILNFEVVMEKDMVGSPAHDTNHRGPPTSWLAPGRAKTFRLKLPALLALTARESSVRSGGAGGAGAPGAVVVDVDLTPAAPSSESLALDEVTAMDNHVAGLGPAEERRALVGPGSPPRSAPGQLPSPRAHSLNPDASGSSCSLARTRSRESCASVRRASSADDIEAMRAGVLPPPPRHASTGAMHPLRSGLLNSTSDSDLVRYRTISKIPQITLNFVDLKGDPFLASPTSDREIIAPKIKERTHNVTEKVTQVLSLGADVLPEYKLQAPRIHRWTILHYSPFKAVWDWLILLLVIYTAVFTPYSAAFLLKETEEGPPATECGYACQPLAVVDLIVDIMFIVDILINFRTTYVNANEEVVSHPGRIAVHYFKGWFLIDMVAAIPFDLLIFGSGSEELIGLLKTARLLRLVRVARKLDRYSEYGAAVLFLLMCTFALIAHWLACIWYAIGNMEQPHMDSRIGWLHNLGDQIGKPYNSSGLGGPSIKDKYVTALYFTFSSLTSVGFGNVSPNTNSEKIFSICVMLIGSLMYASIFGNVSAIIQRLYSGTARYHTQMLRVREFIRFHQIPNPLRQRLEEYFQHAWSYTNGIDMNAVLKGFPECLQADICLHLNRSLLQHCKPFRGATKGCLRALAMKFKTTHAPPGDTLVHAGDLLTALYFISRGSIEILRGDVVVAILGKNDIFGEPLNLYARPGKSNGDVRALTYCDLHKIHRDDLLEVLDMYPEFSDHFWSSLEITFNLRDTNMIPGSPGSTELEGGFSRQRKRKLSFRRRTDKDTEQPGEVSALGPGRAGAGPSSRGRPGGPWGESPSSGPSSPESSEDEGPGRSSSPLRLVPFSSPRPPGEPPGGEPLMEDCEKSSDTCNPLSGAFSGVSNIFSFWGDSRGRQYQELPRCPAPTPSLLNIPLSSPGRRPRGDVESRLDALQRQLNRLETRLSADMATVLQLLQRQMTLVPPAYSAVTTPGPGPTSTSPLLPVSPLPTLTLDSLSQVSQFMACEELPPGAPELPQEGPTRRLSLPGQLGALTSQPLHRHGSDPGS

rat NR1/NR2B = rat NR1/NR2B (Rattus norvegicus, UniProt P35439+Q00960); assay: Two electrode voltage clamp, recombinant NR1/NR2B in Xenopus oocytes; type: cell-based; conditions: n = 5
GluR1 = GluR1 (Rattus norvegicus, UniProt P19490); assay: Two electrode voltage clamp, homomeric GluR1 AMPA receptors in Xenopus oocytes; type: cell-based
Sequence of GluR1 (P19490 19-907): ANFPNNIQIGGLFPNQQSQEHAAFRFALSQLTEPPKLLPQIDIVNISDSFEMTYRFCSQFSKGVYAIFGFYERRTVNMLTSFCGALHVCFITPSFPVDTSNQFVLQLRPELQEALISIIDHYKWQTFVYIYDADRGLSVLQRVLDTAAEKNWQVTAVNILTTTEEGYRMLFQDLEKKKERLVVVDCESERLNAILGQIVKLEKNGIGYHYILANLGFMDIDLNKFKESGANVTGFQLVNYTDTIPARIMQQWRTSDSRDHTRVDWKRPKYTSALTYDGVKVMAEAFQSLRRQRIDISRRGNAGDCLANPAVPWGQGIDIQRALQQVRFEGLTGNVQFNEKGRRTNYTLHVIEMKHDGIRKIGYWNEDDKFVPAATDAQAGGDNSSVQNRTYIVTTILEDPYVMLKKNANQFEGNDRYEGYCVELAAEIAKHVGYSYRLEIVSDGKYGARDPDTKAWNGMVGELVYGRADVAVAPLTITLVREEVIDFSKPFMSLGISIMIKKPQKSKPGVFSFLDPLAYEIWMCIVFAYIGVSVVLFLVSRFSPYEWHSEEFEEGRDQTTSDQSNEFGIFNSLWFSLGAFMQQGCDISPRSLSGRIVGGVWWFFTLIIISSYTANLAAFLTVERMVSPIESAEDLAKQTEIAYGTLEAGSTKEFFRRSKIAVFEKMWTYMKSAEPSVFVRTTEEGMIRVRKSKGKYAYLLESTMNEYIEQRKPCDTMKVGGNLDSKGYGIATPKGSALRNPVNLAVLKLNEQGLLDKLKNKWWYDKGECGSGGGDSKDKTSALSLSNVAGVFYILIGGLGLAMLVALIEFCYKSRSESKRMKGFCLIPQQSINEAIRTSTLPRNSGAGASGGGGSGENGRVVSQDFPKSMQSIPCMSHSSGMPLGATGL

GluR6 = GluR6 (Rattus norvegicus, UniProt P42260); type: cell-based
Sequence of GluR6 (P42260 32-908): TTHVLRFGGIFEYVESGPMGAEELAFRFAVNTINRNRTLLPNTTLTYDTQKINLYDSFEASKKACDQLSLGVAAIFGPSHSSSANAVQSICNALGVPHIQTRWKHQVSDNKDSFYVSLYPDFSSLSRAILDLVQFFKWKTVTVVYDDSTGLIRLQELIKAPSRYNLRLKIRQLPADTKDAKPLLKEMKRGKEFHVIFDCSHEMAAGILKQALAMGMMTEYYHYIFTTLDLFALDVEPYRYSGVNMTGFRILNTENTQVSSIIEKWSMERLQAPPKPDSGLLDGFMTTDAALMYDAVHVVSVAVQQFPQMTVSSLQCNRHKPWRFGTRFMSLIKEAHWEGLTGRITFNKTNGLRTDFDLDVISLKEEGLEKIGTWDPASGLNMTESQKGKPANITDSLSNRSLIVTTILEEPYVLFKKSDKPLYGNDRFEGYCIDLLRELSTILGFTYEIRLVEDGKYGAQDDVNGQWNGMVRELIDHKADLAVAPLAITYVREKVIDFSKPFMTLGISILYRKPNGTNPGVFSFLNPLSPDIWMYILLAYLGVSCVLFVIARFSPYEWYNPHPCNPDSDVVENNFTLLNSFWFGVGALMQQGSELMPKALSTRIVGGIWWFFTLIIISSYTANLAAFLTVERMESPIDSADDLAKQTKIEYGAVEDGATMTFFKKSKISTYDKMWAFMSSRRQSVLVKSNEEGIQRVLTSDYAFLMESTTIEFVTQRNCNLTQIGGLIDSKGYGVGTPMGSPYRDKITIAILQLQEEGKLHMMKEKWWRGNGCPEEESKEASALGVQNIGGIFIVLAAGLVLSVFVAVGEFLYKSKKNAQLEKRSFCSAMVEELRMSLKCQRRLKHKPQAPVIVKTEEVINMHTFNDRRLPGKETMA

NR1/NR2B(ΔATD) = NR1/NR2B(ΔATD) (Rattus norvegicus, UniProt Q00960); assay: Two electrode voltage clamp, amino terminal domain deletion mutant NR1/NR2B; type: cell-based; conditions: maximal glutamate and glycine
[2] = system: voltage-gated Na+ or K+ currents; type: cell-based, rat; conditions: 3 μM; cultured cortical neurons; Na+ at −10 mV, K+ at +50 mV

Sequence of human NR1/NR2B (Q13224 27-1484, other chains not shown): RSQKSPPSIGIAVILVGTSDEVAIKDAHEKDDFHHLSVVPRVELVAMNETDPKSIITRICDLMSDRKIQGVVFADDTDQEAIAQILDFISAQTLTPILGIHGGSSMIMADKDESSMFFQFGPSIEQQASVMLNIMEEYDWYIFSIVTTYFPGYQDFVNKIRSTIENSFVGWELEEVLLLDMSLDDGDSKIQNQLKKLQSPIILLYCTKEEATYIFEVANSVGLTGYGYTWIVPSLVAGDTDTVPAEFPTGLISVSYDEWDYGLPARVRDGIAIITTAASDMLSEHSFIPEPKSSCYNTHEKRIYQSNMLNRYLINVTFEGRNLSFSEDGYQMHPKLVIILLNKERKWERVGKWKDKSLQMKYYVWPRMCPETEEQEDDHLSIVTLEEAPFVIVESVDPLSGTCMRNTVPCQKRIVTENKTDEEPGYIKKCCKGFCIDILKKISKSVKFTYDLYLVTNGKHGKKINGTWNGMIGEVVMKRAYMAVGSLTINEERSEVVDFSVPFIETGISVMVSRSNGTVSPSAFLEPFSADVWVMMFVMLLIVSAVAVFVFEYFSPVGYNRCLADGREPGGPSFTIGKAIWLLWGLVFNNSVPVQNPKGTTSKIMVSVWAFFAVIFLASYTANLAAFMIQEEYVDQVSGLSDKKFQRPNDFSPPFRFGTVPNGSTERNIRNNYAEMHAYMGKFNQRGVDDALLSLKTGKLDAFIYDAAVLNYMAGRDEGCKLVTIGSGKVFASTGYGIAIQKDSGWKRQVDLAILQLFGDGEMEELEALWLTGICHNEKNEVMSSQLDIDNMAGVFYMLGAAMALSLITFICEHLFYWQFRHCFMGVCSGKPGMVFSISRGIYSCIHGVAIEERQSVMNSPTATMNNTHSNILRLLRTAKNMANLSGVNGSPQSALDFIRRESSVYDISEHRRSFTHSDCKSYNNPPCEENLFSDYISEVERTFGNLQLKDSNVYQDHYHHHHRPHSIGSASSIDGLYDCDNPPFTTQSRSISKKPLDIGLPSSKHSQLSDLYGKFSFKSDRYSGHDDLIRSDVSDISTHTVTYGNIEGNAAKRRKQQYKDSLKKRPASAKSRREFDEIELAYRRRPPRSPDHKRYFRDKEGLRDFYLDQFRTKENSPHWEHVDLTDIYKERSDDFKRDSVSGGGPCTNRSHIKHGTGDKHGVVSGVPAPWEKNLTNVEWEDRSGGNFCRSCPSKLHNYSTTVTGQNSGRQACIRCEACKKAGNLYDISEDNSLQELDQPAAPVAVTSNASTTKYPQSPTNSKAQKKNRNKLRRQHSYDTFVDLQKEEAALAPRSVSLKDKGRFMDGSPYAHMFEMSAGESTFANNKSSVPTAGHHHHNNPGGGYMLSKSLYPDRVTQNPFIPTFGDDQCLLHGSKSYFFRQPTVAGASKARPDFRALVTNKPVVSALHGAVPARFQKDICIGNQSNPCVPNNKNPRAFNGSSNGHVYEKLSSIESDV

- IC50 (human NR1/NR2B): ~1 µM
Compound: CS(=O)(=O)Nc1ccc(OCCNCC(=O)Nc2ccc(Cl)c(Cl)c2)cc1 [Compound 67, N-(3,4-Dichlorophenyl)-2-(2-(4-(methylsulfonamido)-phenoxy)ethylamino) acetamide]

- α1-Adrenergic (% displacement at 3 μM) (α1-adrenergic receptor): <1%
- α1-adrenergic binding (α1-adrenergic receptor): negligible
Compound: CS(=O)(=O)Nc1ccc(CCCN2CCN(c3ccc(Cl)c(Cl)c3)C2=O)cc1 [Compound 70, N-(4-(3-(3-(3,4-Dichlorophenyl)-2-oxoimidazolidin-1-yl)propyl)phenyl)methanesulfonamide]

- Papp A→B at 2 h, 5 μM (MDR1): 4.8 ×10⁻⁶ cm/s
Compound: CS(=O)(=O)Nc1ccc(OCC(=O)N2CCN(c3ccc(Cl)c(Cl)c3)CC2)cc1 [Compound 57, N-(4-(2-(4-(3,4-Dichlorophenyl)piperazin-1-yl)-2-oxoethoxy)phenyl)methanesulfonamide]

- α1-adrenergic binding (α1-adrenergic receptor): negligible
Compound: CS(=O)(=O)Nc1ccc(OCCN2CCN(c3ccc(Cl)c(Cl)c3)C2=O)cc1 [Compound 71, N-(4-(2-(3-(3,4-Dichlorophenyl)-2-oxoimidazolidin-1-yl)ethoxy)phenyl)methanesulfonamide]

- α1-Adrenergic (% displacement at 3 μM) (α1-adrenergic receptor): <1%
- α1-adrenergic binding (α1-adrenergic receptor): negligible
Compound: CS(=O)(=O)Nc1ccc(OCC(=O)NCCCc2ccc(Cl)c(Cl)c2)cc1 [Compound 54, N-(3-(3,4-Dichlorophenyl)propyl)-2-(4-(methylsulfonamido)phenoxy)acetamide]
- hERG binding [1]: negligible

Compound: CS(=O)(=O)Nc1ccc(CCC(=O)NCCNc2ccc(Cl)c(Cl)c2)cc1 [Compound 49, N-(2-(3,4-Dichlorophenylamino)ethyl)-3-(4-(methylsulfonamido)phenyl)propanamide]
- α1-adrenergic binding (α1-adrenergic receptor): neither amide 49 or 52 showed any α1-adrenergic binding

- α1-Adrenergic (% displacement at 3 μM) (α1-adrenergic receptor): <1%
Compound: CS(=O)(=O)Nc1ccc(CCC(=O)NNC(=S)Nc2ccc(Cl)c(Cl)c2)cc1 [Compound 14, 4-(3,4-Dichlorophenyl)-1-(3-(4-(methylsulfonamido)-phenyl)propanoyl)thiosemicarbazide]

Compound: CS(=O)(=O)Nc1ccc(OCC(=O)NCCNc2ccc(Cl)c(Cl)c2)cc1 [Compound 52, N-(2-(3,4-Dichlorophenylamino)ethyl)-2-(4-(meth-ylsulfonamido)phenoxy)acetamide]
- voltage dependence of inhibition (rat NR1/NR2B): voltage-independent
- effect on recombinant AMPA (GluR1) receptors (GluR1; 3 μM): no detectable effects
- effect on recombinant kainate receptors (GluR6) (GluR6; 3 μM): no detectable effects
- Ki [1]: ~12 µM
- hERG binding [1]: minimal
- α1-Adrenergic (% displacement at 3 μM) (α1-adrenergic receptor): <1%
- α1-adrenergic binding (α1-adrenergic receptor): neither amide 49 or 52 showed any α1-adrenergic binding; also recorded: minimal
- effect on current response of NR1/NR2B(ΔATD) (NR1/NR2B(ΔATD)): virtually no effect
- effect on voltage-gated Na+ or K+ currents [2]: no detectable effects

- remaining activity at 3 µM (GluR1; read-out: GluR1 % response): 101 ± 0.5%
- remaining activity at 3 µM (GluR6; read-out: GluR6 % response): 97 ± 1%
- IC50 (human NR1/NR2B): 5.75 µM
Compound: CS(=O)(=O)Nc1ccc(CCC(=O)NNC(=O)Cc2ccc(Cl)c(Cl)c2)cc1 [Compound 16, N’-(2-(3,4-Dichlorophenyl)acetyl)-3-(4-(methylsulfonamido)phenyl)propanehydrazide]

Compound: CS(=O)(=O)Nc1ccc(CCC(=O)NC/C=C/c2ccc(Cl)c(Cl)c2)cc1 [Compound 50, N-(3,4-Dichlorocinnamyl)-3-(4-(methylsulfonamido)-phenyl)propanamide]
- hERG (% displacement) at 3 μM ([1]; 3 μM test compound, 1.5 nM [3H]-astemizole): 47 ^* %
- α1-adrenergic binding (α1-adrenergic receptor): without actions
